Reference: patent US8901317B2, “Tryptamine derivatives, their preparation and their use in gastropathy” (Council of Scientific & Industrial Research, priority 2010, dated 2014)

Assays:
caspase-9 = assay: Caspase-9 activity in gastric mucosal tissue; type: in vivo, rats; settings: gastric mucosa
Method: From cytosolic fraction of gastric mucosal tissues, caspase-9 and caspse-3 activities were measured using commercially available kit (Biovision, Mountain View, Calif., USA and Sigma respectively). In brief, the gastric mucosa was homogenized in caspase lysis buffer (provided with the respective kit). The homogenate was centrifuged at 16,000×g for 15 min. The supernatant was collected and mixed with 50 μl of 2× reaction buffer (provided with the respective kit). This was followed by addition of the substrates: […] (200 μM final concentration) for caspase-3 and LEHD-pNA (200 μM final concentration) for caspase-9. The mixture was incubated at 37° C. for 1 hr and absorbance was taken at 405 nm (Maity, P.; et al. J. Biol. Chem. 284:3058-3068; 2009, Maity, P.; et al. J. Biol. Chem. 283:14391-14401; 2008, Maity, P.; et al. J. Pineal Res. 46:314-323; 2009).

[1] = test system: cold-restrain stress induced mucosal injury; assay: Cold-restrain stress induced mucosal injury; type: in vivo, Sprague-Dwaley rats; settings: immobilized at 4° C. for 3.5 hrs; rats
[2] = test system: Ethanol-induced gastric mucosal injury; assay: Ethanol-induced gastric mucosal injury; type: in vivo, Sprague-Dwaley rats; settings: 1 ml of 50% ethanol oral; rats
gastric mucosal cells = assay: TUNEL assay of gastric mucosa in vivo; design: species or system rats
[3] = test system: indomethacin-induced gastric mucosal damage; assay: Indomethacin-induced gastric mucosal damage (ulcer index, histology); type: in vivo, Sprague-Dwaley rats
Method: Sprague-Dwaley rats (180-220 gm) were used for this study. Each group (control or experimental) of animals was maintained at 24±2° C. with 12 hrs lights and dark cycle. The animals were fasted for 24 hrs before the start of experiments. They were provided with water ad libitum to avoid food-induced increased acid secretion and its effect on gastric lesions. Gastric mucosal ulcer was developed by indomethacin as described (Pal, C; et al. Free Radic Biol Med, 49(2), 258-267; 2010, Biswas, K.; et al. J. Biol. Chem. 278:10993-11001; 2003, Bandyopadhyay, U.; et al. Life Sci. 71:2845-2865; 2002). Briefly, all the animals were divided into control, indomethacin and test compound group. Oral administration of indomethacin at a dose of 48 mg kg^−1 b.w was given to the fasted animals to induce gastric ulcer. […] Control group received vehicle only but no indomethacin. After 4 hrs of indomethacin treatment, the animals were sacrificed under proper euthanasia and stomachs were collected. The mucosal injury was scored as ulcer index as follows: 0=no pathology; 1=one pinhead ulcer. The sum of the total scores divided by the number of animals gave the ulcer index. All the in vivo studies were done in accordance with the institute animal ethical committee guidelines. To see the effect of SEGA on diclofenac induced gastric mucosal injury, gastric mucosal damage was developed by the oral administration of diclofenac (75 mg kg^−1) and the rest of the experiment was carried out in a similar way as described for indomethacin. Diclofenac produced pinhead ulcer like indomethacin and the mucosal injury was scored as ulcer index as described above. Ethanol-induced gastric mucosal injury was developed with oral administration of 1 ml of 50% ethanol (Banerjee, R. K. (2002) Life Sci 71, 2845-2865) and after 4 hrs the animals were sacrificed and cold-restrain stress induced mucosal injury was developed by immobilizing the animals at 4° C. for 3.5 hrs (Banerjee, R. K. (2002) Life Sci 71, 2845-2865, (2003) J Biol Chem 278, 10993-11001).
Stomach tissues from the animals of different groups were washed first washed several times with PBS (pH 7.4) and later fixed in 10% buffered formalin for 12 hrs at 25° C. The formalin-fixed tissues were then dehydrated and embedded in paraffin for preparing semi-thin sections (Maity, P.; et al. J. Biol. Chem. 283:14391-14401; 2008). The semi-thin sections were prepared using a microtome and taken over poly-L-lysine coated glass slide for hematoxylene-eosine staining. The stained sections were observed under microscope (Leica DM-2500, Germany) and were documented by high-resolution digital camera.

[4] = test system: Mitochondrial transmembrane potential (ΔΨm); assay: Mitochondrial transmembrane potential (JC-1); type: in vivo, rats; settings: indomethacin, diclofenac; pretreatment
Method: Mitochondrial transmembrane potential (ΔΨm) was measured as described (Maity, P.; et al. J. Biol. Chem. 284:3058-3068; 2009, Maity, P.; et al. J. Biol. Chem. 283:14391-14401; 2008, Maity, P.; et al. J. Pineal Res. 46:314-323; 2009). Mitochondria were isolated from gastric mucosal scraping using Mitoisolation kit (Biochain) as described above. Equal amount of mitochondria (25 μg) from each group (control, indomethacin, diclofenac and SEGA pre-treated indomethacin, diclofenac treated) was taken in 100 μl of JC-1 assay buffer (100 mM MOPS, pH 7.5, containing 550 mM KCl, 50 mM ATP, 50 mM MgCl2, 50 mM sodium succinate, 5 mM EGTA) and were incubated in dark with JC1 (300 nM) for 15 min at 25° C. The fluorescence of each sample was measured in a Hitachi F-7000 fluorescence spectrophtometer (excitation 490 nm, emission 530 nm for JC-1 monomer and emission 590 nm for JC-1 aggregates). ΔΨm was expressed as fluorescence ratio of 590 nm/530 nm.

[5] = test system: primary cultured gastric epithelial cells; assay: TUNEL assay in cultured gastric mucosal cells; type: cell-based, rat; settings: in vitro cultured gastric mucosa
Method: Gastric mucosal cells were isolated and cultured as described earlier (Pal, C; et al. Free Radic Biol Med, 49(2), 258-267; 2010) with slight modification. Mucosa from rat stomach was scraped into HBSS (pH 7.4) containing 100 U/ml penicillin and 100-μg/ml streptomycin. The mucosa was then minced and suspended in HBSS (pH 7.4), containing 0.05% hyaluronidase and 0.1% collagenase type I. The suspension was incubated for 30 min at 37° C. in 5% CO2 environment with shaking and then filtered through a sterile nylon mess. The filtrate was centrifuged at 600×g for 5 min, the cell pellet was washed with HBSS (pH 7.4) and further centrifuged. The pellet was incubated in 5 ml of Hans F-12 media in T25 flask supplemented with 10% fetal bovine serum (FBS) and 100 U/ml penicillin, 100-μg/ml streptomycin and gentamycin. Cells were cultured at 37° C. with 5% CO2 and grown to ˜90% confluence before treatment.

O=C(NCCc1c[nH]c2ccc(O)cc12)c1cc(O)c(O)c(O)c1 [Compound 3a, 3,4,5-trihydroxy-N-(2-(5-hydroxy-1H-indol-3-yl)ethyl)benzamide]
activation of caspase-9 during indomethacin treatment (caspase-9): prevents the activation of caspase-9
gastroprotective effect in stress induced gastropathy [1]: protects the gastric mucosa
gastroprotective effect in ethanol induced gastropathy [2]: protects the gastric mucosa
indomethacin-induced apoptosis (TUNEL) in vivo (gastric mucosal cells): prevents the indomethcin-induced apoptosis
Gastric mucosal damage (ulcer index) ([3]; compound 6.9 mg kg^−1 intraperitoneally before indomethacin 48 mg kg^−1 oral, rats): 30 ± 3
protection, indomethacin-induced gastric mucosal injury ([3]; dose 1 mg kg^−1 i.p.): 17%
protection, indomethacin-induced gastric mucosal injury ([3]; dose 3 mg kg^−1 i.p.): 28%
protection, indomethacin-induced gastric mucosal injury ([3]; dose 5 mg kg^−1 i.p.): 45%
protection, indomethacin-induced gastric mucosal injury ([3]; dose 10 mg kg^−1 i.p.): 62%
protection, indomethacin-induced gastric mucosal injury ([3]; dose 20 mg kg^−1 i.p.): 82%
protection, indomethacin-induced gastric mucosal injury ([3]; dose 50 mg kg^−1 i.p.): 94%
ED50, prevention of indomethacin-induced gastric mucosal damage ([3]; intraperitoneal, rats, listed as SEGA (3a)): 6.9 mg/kg
histology of gastric mucosal tissue (haematoxylin-eosin) ([3]; pretreated indomethacin-treated rats): could protect gastric mucosa
mitochondrial membrane potential (fluorescence ratio 590 nm/530 nm, JC-1) [4]: restores all the NSAIDs-induced mitochondrial dysfuctions
indomethacin-induced apoptosis (TUNEL) in vitro [5]: prevents the indomethcin-induced apoptosis
